System: Aβ 40 in conditioned media of cells stably expressing Amyloid Precursor Protein (APP)
Experiment: BACE Cell-Based Assay (Aβ40 in conditioned medium, sandwich ELISA)
Details: 24 hours of incubation with the test compounds, Aβ 40 by sandwich ELISA, read-out: IC50 values in the cell-based assay (inhibition of Aβ 40)
Outline: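 APP-stably-expressing cells in DMEM/10% FBS exposed 24 h to 10-point compound dilutions starting at 100 or 10 μM, 0.1% DMSO final. Aβ40 in conditioned medium measured by sandwich ELISA (pAb40 capture, biotinylated 6E10 detection, Eu time-resolved fluorescence); IC50 from percent inhibition versus concentration.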

IC50 [µM]	Structure (SMILES)
≤ 5	CCc1ccc2c(c1)[C@@H](NC[C@@H](O)[C@H](Cc1ccccc1)NC(=O)[C@@H]1CN(C(=O)N3CCO[C@@H](C)C3)CCO1)CC1(CCC1)O2 [Example 521, (2S)-N-((1S,2R)-3-(((4S)-6-ethyl-3,4-dihydrospiro[chromene-2,1′-cyclobutan]-4-yl)amino)-2-hydroxy-1-(phenylmethyl)propyl)-4-(((2S)-2-methyl-4-morpholinyl)carbonyl)-2-morpholinecarboxamide]
≤ 5	O=C(N[C@@H](Cc1ccccc1)[C@H](O)CN[C@H]1CC2(CCC2)Oc2ccc(N3CCOCC3)cc21)[C@H]1CC(=O)N(C2CCC2)C1 [Example 524, (3S)-1-cyclobutyl-N-((1S,2R)-2-hydroxy-3-(((4S)-6-(4-morpholinyl)-3,4-dihydrospiro[chromene-2,1′-cyclobutan]-4-yl)amino)-1-(phenylmethyl)propyl)-5-oxo-3-pyrrolidinecarboxamide]
≤ 5	O=C(N[C@@H](Cc1ccccc1)[C@H](O)CN[C@H]1CC2(CCC2)Oc2ccc(N3CCOCC3)cc21)[C@@H]1CN(C(=O)C2CCOCC2)CCO1 [Example 526, (2S)-N-((1S,2R)-2-hydroxy-3-(((4S)-6-(4-morpholinyl)-3,4-dihydrospiro[chromene-2,1′-cyclobutan]-4-yl)amino)-1-(phenylmethyl)propyl)-4-(tetrahydro-2H-pyran-4-ylcarbonyl)-2-morpholinecarboxamide]
≤ 5	O=C1CC[C@@H](C(=O)N[C@@H](Cc2ccccc2)[C@H](O)CN[C@H]2CC3(CCC3)Oc3ccc(N4CCOCC4)cc32)O1 [Example 528, (2S)-N-((1S,2R)-2-hydroxy-3-(((4S)-6-(4-morpholinyl)-3,4-dihydrospiro[chromene-2,1′-cyclobutan]-4-yl)amino)-1-(phenylmethyl)propyl)-5-oxotetrahydro-2-furancarboxamide]
≤ 5	O=C1CC[C@H](C(=O)N[C@@H](Cc2ccccc2)[C@H](O)CN[C@H]2CC3(CCC3)Oc3ccc(N4CCOCC4)cc32)O1 [Example 529, (2R)-N-((1S,2R)-2-hydroxy-3-(((4S)-6-(4-morpholinyl)-3,4-dihydrospiro[chromene-2,1′-cyclobutan]-4-yl)amino)-1-(phenylmethyl)propyl)-5-oxotetrahydro-2-furancarboxamide]

Continued, compound first:

Structure (SMILES)	IC50 [µM]
CC1(C)Oc2ncccc2[C@H]1NC[C@@H](O)[C@H](Cc1ccccc1)NC(=O)c1cc(-c2ccccn2)c(=O)n(C2CCCC2)c1 [Example 512, 1′-cyclopentyl-N-((1S,2R)-3-(((3R)-2,2-dimethyl-2,3-dihydrofuro[2,3-b]pyridin-3-yl)amino)-2-hydroxy-1-(phenylmethyl)propyl)-2′-oxo-1′,2′-dihydro-2,3′-bipyridine-5′-carboxamide]	≤ 5
CC1(C)Oc2ncccc2[C@@H]1NC[C@@H](O)[C@H](Cc1ccccc1)NC(=O)c1cc(C2=CC=CCN2)c(=O)n(C2CCCC2)c1 [Example 513, 1′-cyclopentyl-N-((1S,2R)-3-(((3S)-2,2-dimethyl-2,3-dihydrofuro[2,3-b]pyridin-3-yl)amino)-2-hydroxy-1-(phenylmethyl)propyl)-2′-oxo-1,2′-dihydro-2,3′-bipyridine-5′-carboxamide]	≤ 5
CCc1cc2c(s1)CC(C)(C)C[C@@H]2NC[C@@H](O)[C@H](Cc1ccccc1)NC(=O)[C@@H]1CN(C(=O)c2cccc(C)c2)CCO1 [Example 514, (2S)-N-((1S,2R)-3-(((4S)-2-ethyl-6,6-dimethyl-4,5,6,7-tetrahydro-1-benzothien-4-yl)amino)-2-hydroxy-1-(phenylmethyl)propyl)-4-((3-methylphenyl)carbonyl)-2-morpholinecarboxamide]	≤ 5
CCc1cc2c(s1)CC(C)(C)C[C@@H]2NC[C@@H](O)[C@H](Cc1ccccc1)NC(=O)[C@H]1CN(C(=O)c2cccc(C)c2)CCO1 [Example 515, (2R)-N-((1S,2R)-3-(((4S)-2-ethyl-6,6-dimethyl-4,5,6,7-tetrahydro-1-benzothien-4-yl)amino)-2-hydroxy-1-(phenylmethyl)propyl)-4-((3-methylphenyl)carbonyl)-2-morpholinecarboxamide]	≤ 5
CC1(C)Cc2ccc(O[C@H]3CCOC3)cc2[C@@H](NC[C@@H](O)[C@H](Cc2ccccc2)NC(=O)[C@H]2CCC(=O)O2)C1 [Example 516, (2R)-N-((1S,2R)-3-(((1S)-3,3-dimethyl-7-((3S)-tetrahydro-3-furanyloxy)-1,2,3,4-tetrahydro-1-naphthalenyl)amino)-2-hydroxy-1-(phenyl-methyl)propyl)-5-oxotetrahydro-2-furancarboxamide]	≤ 5
CC1(C)Cc2ccc(O[C@H]3CCOC3)cc2[C@@H](NC[C@@H](O)[C@H](Cc2ccccc2)NC(=O)[C@@H]2CCC(=O)O2)C1 [Example 517, (2S)-N-((1S,2R)-3-(((1S)-3,3-dimethyl-7-((3S)-tetrahydro-3-furanyloxy)-1,2,3,4-tetrahydro-1-naphthalenyl)amino)-2-hydroxy-1-(phenyl-methyl)propyl)-5-oxotetrahydro-2-furancarboxamide]	≤ 5
CC1(C)Cc2ccc(O[C@H]3CCOC3)cc2[C@@H](NC[C@@H](O)[C@H](Cc2ccccc2)NC(=O)c2ccc(=O)n(C3CCCC3)c2)C1 [Example 518, 1-cyclopentyl-N-((1S,2R)-3-(((1S)-3,3-dimethyl-7-((3S)-tetrahydro-3-furanyloxy)-1,2,3,4-tetrahydro-1-naphthalenyl)amino)-2-hydroxy-1-(phenylmethyl)propyl)-6-oxo-1,6-dihydro-3-pyridinecarboxamide]	≤ 5
CC1(C)Cc2ccc(O[C@H]3CCOC3)cc2[C@@H](NC[C@@H](O)[C@H](Cc2ccccc2)NC(=O)c2cc(-c3ccccn3)c(=O)n(C3CCCC3)c2)C1 [Example 519, 1′-cyclopentyl-N-((1S,2R)-3-(((1S)-3,3-dimethyl-7-((3S)-tetrahydro-3-furanyloxy)-1,2,3,4-tetrahydro-1-naphthalenyl)amino)-2-hydroxy-1-(phenylmethyl)propyl)-2′-oxo-1′,2′-dihydro-2,3′-bipyridine-5′-carboxamide]	≤ 5
CC(C)(C)Cc1cnc2c(c1)[C@@H](NC[C@@H](O)[C@H](Cc1ccccc1)NC(=O)c1cc(C3CCCCO3)c(=O)n(C3CCCC3)c1)CC1(CCC1)O2 (stereo partly drawn) [Example 522, 1-cyclopentyl-N-((1S,2R)-3-(((4′S)-6′-(2,2-dimethyl-propyl)-3′,4′-dihydrospiro[cyclobutane-1,2′-pyrano[2,3-b]pyridin]-4′-yl)amino)-2-hydroxy-1-(phenyl-methyl)propyl)-6-oxo-5-(tetrahydro-2H-pyran-2-yl)-1,6-dihydro-3-pyridinecarboxamide]	≤ 5
CCc1cc2c(s1)CC(C)(C)C[C@@H]2NC[C@@H](O)[C@H](Cc1ccccc1)NC(=O)[C@H]1CC(=O)N(C2CCC2)C1 [Example 523, (3S)-1-cyclobutyl-N-((1S,2R)-3-(((4S)-2-ethyl-6,6-dimethyl-4,5,6,7-tetrahydro-1-benzothien-4-yl)amino)-2-hydroxy-1-(phenylmethyl)propyl)-5-oxo-3-pyrrolidinecarboxamide]	≤ 5
CCc1ccc2c(c1)[C@@H](NC[C@@H](O)[C@H](Cc1cscn1)NC(=O)c1cc(-c3ccccn3)c(=O)n(C3CCCC3)c1)CC1(CCC1)O2 [Example 525, 1′-cyclopentyl-N-((1S,2R)-3-(((4S)-6-ethyl-3,4-dihydrospiro[chromene-2,1′-cyclobutan]-4-yl)amino)-2-hydroxy-1-(1,3-thiazol-4-ylmethyl)propyl)-2′-oxo-1′,2′-dihydro-2,3′-bipyridine-5′-carboxamide]	≤ 5
CCc1ccc2c(c1)[C@@H](NC[C@@H](O)[C@H](Cc1ccccc1)NC(=O)[C@@H]1C[C@@H](c3ccccc3)CN(C(=O)c3cccc(C)c3)C1)CC1(CCC1)O2 [Example 527, (3R,5S)-N-((1S,2R)-3-(((4S)-6-ethyl-3,4-dihydrospiro[chromene-2,1′-cyclobutan]-4-yl)amino)-2-hydroxy-1-(phenylmethyl)propyl)-1-((3-methylphenyl)carbonyl)-5-phenyl-3-piperidinecarboxamide]	≤ 5
